{
  "source": "ChEMBL document CHEMBL5143740",
  "about": "“Discovery of Novel Phosphoinositide-3-Kinase α Inhibitors with High Selectivity, Excellent Bioavailability, and Long-Acting Efficacy for Gastric Cancer” (J Med Chem, 2022)",
  "note": "Active and inactive are the calls of the source. The rule behind the calls is not given here.",
  "data": [
    {"target": "T1, Phosphatidylinositol 4,5-bisphosphate 3-kinase catalytic subunit delta isoform (Homo sapiens, UniProt O00329)", "T1 sequence (O00329 whole entry)": "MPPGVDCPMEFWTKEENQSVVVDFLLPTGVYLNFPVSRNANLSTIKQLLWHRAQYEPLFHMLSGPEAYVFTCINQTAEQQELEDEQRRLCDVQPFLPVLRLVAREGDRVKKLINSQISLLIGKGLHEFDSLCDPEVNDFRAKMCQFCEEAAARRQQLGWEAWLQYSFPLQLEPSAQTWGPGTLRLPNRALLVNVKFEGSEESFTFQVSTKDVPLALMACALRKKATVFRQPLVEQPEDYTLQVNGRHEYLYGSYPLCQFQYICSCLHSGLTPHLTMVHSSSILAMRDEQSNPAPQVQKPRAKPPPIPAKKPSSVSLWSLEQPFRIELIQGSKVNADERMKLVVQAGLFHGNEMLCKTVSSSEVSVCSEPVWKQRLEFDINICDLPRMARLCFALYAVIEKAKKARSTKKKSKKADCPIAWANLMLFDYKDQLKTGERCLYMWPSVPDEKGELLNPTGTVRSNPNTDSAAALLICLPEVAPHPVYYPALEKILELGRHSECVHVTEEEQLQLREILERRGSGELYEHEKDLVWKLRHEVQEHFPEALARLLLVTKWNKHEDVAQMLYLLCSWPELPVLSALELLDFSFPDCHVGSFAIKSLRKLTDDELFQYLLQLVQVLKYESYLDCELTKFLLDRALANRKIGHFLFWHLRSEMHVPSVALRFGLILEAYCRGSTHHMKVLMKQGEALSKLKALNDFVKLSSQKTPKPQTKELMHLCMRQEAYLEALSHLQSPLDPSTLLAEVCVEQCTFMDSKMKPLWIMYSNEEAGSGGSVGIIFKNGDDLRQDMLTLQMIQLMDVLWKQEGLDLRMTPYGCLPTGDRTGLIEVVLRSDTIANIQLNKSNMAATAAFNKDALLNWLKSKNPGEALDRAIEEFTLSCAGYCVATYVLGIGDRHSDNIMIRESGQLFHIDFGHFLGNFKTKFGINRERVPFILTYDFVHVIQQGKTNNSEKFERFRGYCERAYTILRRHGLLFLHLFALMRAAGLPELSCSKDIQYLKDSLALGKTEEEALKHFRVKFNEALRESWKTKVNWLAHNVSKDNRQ", "test": "Inhibition of PI3Kdelta (unknown origin) in presence of [33P]-ATP incubated for 2 hrs by hotspot kinase assay", "conditions": "not given", "units": {"IC50": "nM"}, "values": [
      {"smiles": "O=C(O)c1ccc(CNc2nc3ccc(-c4nc(N5CCOCC5)nc(N5CCOCC5)n4)cc3o2)cc1", "IC50": 51}
    ]},
    {"target": "Phosphatidylinositol 4,5-bisphosphate 3-kinase catalytic subunit gamma isoform (Homo sapiens, UniProt P48736)", "sequence (P48736 whole entry, canonical isoform)": "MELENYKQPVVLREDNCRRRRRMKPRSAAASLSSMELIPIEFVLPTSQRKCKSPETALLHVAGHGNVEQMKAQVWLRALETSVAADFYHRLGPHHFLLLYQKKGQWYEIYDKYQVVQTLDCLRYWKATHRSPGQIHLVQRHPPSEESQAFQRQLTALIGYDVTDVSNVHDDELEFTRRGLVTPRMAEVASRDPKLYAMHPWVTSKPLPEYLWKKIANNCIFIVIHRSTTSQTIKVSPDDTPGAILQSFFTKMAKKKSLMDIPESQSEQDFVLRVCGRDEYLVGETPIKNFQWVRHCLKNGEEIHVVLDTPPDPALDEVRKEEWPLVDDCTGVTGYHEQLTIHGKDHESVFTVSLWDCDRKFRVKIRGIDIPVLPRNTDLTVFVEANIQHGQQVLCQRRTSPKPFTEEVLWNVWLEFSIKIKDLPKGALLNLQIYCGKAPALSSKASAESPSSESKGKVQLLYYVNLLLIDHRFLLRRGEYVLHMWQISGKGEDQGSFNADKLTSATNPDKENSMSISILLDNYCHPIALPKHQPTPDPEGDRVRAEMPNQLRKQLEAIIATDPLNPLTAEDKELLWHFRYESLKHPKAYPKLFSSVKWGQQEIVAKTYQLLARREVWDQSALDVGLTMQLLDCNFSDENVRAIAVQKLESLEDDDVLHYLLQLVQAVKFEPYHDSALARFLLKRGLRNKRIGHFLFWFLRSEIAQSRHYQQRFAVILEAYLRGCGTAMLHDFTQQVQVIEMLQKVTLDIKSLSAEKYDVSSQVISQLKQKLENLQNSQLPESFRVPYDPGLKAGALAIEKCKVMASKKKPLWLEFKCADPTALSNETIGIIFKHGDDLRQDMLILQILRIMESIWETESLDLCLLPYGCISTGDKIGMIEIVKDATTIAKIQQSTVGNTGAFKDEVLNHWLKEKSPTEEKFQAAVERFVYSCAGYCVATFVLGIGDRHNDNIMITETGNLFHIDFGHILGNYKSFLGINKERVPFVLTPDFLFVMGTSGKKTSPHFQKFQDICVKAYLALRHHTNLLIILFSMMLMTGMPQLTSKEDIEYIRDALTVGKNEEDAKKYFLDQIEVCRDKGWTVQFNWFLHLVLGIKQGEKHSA", "conditions": "not given", "units": {"IC50": "nM"}, "values": [
      {"smiles": "O=C(O)c1ccc(CNc2nc3ccc(-c4nc(N5CCOCC5)nc(N5CCOCC5)n4)cc3o2)cc1", "IC50": 3490}
    ]},
    {"species": "Homo sapiens", "test": "Selectivity index, ratio of IC50 for inhibition of PI3Kbeta (unknown origin) to IC50 for inhibition of PI3Kalpha (unknown origin)", "conditions": "not given", "values": [
      {"smiles": "O=C(O)c1ccc(CNc2nc3ccc(-c4nc(N5CCOCC5)nc(N5CCOCC5)n4)cc3o2)cc1", "Ratio IC50": 16}
    ]},
    {"system": "MGC-803", "test": "Antitumor activity against human MGC-803 cells xenografted in BALB/c nude mouse assessed as tumor growth inhibition at 30 mg/kg, po administered every day for 3 weeks", "format": "functional", "conditions": "MGC-803, 504 h, read-out: TGI", "units": {"inhibition in vivo at 30 mg/kg": "%"}, "values": [
      {"smiles": "CC(=O)O[C@H]1C(=O)[C@@]2(C)[C@H]([C@H](OC(=O)c3ccccc3)[C@]3(O)C[C@H](OC(=O)[C@H](O)[C@@H](NC(=O)c4ccccc4)c4ccccc4)C(C)=C1C3(C)C)[C@]1(OC(C)=O)CO[C@@H]1C[C@@H]2O", "note": "[PACLITAXEL]", "inhibition in vivo at 30 mg/kg": 60.3}
    ]},
    {"system": "MGC-803", "test": "Antitumor activity against human MGC-803 cells xenografted in BALB/c nude mouse assessed as reduction in tumor volume at 10 mg/kg, ip administered every day for 3 weeks by vernier caliper method", "format": "functional, organism-based", "conditions": "not given", "values": [
      {"smiles": "CC(=O)O[C@H]1C(=O)[C@@]2(C)[C@H]([C@H](OC(=O)c3ccccc3)[C@]3(O)C[C@H](OC(=O)[C@H](O)[C@@H](NC(=O)c4ccccc4)c4ccccc4)C(C)=C1C3(C)C)[C@]1(OC(C)=O)CO[C@@H]1C[C@@H]2O", "note": "[PACLITAXEL]", "Activity": "Active"}
    ]},
    {"system": "MCF7", "test": "Antiproliferative activity against human MCF7 cells assessed as inhibition of cell growth incubated for 72 hrs by CCK8 assay", "format": "functional, cell-based", "conditions": "MCF7, 72 h", "units": {"IC50": "nM"}, "values": [
      {"smiles": "Cc1nc(NC(=O)N2CCC[C@H]2C(N)=O)sc1-c1ccnc(C(C)(C)C(F)(F)F)c1", "note": "[ALPELISIB]", "IC50": 430}
    ]},
    {"species": "Homo sapiens", "test": "Selectivity index, ratio of IC50 for inhibition of PI3Kgamma (unknown origin) to IC50 for inhibition of PI3Kalpha (unknown origin)", "conditions": "not given", "values": [
      {"smiles": "O=C(O)c1ccc(CNc2nc3ccc(-c4nc(N5CCOCC5)nc(N5CCOCC5)n4)cc3o2)cc1", "Ratio IC50": 581}
    ]},
    {"system": "MGC-803", "test": "Antiproliferative activity against human MGC-803 cells assessed as inhibition of cell growth incubated for 72 hrs by CCK8 assay", "format": "functional, cell-based", "conditions": "MGC-803, 72 h", "units": {"IC50": "nM"}, "values": [
      {"smiles": "Cc1nc(NC(=O)N2CCC[C@H]2C(N)=O)sc1-c1ccnc(C(C)(C)C(F)(F)F)c1", "note": "[ALPELISIB]", "IC50": 430}
    ]},
    {"target": "Phosphatidylinositol 4,5-bisphosphate 3-kinase catalytic subunit beta isoform (Homo sapiens, UniProt P42338)", "sequence (P42338 whole entry, canonical isoform)": "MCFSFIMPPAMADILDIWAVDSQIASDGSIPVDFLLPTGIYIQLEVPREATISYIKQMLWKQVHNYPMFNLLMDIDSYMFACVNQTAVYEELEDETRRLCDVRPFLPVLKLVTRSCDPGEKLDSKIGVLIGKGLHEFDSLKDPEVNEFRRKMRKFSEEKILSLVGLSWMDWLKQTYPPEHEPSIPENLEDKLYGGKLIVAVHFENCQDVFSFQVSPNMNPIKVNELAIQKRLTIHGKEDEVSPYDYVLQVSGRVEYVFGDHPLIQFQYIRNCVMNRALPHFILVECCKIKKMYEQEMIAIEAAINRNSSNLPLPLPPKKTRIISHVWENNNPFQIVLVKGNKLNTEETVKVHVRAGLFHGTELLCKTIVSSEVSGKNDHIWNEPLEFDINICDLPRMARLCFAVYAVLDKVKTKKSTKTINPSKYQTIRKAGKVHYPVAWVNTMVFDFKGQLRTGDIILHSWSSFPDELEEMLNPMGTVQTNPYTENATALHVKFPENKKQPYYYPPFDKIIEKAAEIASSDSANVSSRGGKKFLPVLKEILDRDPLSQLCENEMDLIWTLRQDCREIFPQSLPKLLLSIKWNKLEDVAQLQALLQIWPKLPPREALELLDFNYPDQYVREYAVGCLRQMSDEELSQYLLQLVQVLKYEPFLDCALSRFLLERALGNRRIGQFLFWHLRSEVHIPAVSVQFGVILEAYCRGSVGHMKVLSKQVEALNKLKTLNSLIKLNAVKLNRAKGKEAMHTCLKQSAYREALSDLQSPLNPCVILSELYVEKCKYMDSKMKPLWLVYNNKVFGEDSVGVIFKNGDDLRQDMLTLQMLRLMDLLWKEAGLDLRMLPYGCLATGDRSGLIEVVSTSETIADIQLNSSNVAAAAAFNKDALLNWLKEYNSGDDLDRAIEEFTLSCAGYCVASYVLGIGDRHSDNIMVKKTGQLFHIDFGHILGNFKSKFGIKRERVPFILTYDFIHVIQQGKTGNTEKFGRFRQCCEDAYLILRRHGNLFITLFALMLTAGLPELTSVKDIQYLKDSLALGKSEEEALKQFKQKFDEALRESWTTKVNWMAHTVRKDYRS", "test": "Inhibition of PI3Kbeta (unknown origin) in presence of [33P]-ATP incubated for 2 hrs by hotspot kinase assay", "conditions": "not given", "units": {"IC50": "nM"}, "values": [
      {"smiles": "O=C(O)c1ccc(CNc2nc3ccc(-c4nc(N5CCOCC5)nc(N5CCOCC5)n4)cc3o2)cc1", "IC50": 100}
    ]},
    {"species": "Homo sapiens", "test": "Selectivity index, ratio of IC50 for inhibition of PI3Kdelta (unknown origin) to IC50 for inhibition of PI3Kalpha (unknown origin)", "conditions": "not given", "values": [
      {"smiles": "O=C(O)c1ccc(CNc2nc3ccc(-c4nc(N5CCOCC5)nc(N5CCOCC5)n4)cc3o2)cc1", "Ratio IC50": 8.5}
    ]},
    {"target": "Phosphatidylinositol 4,5-bisphosphate 3-kinase catalytic subunit alpha isoform (Homo sapiens, UniProt P42336)", "sequence (P42336 whole entry, canonical isoform)": "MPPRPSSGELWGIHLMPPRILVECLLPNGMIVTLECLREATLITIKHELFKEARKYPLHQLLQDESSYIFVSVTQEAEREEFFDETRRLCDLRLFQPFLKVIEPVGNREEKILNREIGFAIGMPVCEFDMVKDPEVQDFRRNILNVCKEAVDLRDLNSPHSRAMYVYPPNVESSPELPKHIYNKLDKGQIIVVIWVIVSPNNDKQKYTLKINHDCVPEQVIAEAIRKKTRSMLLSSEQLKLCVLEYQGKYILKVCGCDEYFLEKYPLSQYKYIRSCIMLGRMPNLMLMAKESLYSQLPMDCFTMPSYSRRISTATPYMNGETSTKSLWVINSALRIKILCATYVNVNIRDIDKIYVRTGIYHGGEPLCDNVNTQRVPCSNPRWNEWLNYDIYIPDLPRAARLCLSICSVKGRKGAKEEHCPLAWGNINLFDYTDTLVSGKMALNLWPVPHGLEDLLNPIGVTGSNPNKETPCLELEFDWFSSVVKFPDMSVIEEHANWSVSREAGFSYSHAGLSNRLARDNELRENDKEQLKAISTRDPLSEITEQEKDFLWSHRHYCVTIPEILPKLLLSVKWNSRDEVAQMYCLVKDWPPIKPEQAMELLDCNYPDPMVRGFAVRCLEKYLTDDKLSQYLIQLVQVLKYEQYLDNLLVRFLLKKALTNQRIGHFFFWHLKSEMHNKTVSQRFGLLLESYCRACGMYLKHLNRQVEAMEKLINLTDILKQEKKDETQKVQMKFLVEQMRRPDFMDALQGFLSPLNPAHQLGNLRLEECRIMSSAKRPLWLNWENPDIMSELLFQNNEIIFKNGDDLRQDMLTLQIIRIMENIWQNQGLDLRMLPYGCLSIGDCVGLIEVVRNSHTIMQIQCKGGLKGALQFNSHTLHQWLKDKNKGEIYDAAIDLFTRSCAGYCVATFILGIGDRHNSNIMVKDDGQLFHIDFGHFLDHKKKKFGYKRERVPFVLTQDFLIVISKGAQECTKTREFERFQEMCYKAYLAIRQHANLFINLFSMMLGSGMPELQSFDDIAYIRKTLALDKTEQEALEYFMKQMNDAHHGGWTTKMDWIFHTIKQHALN", "test": "Inhibition of PI3Kalpha (unknown origin) using PIP2 as substrate in presence of ATP measured after 1 hr by ADP-Glo assay", "conditions": "not given", "units": {"IC50": "nM"}, "values": [
      {"smiles": "Nc1nc2ccc(-c3nc(Nc4ccc5c(c4)OCO5)nc(Nc4ccc5c(c4)OCO5)n3)cc2o1", "IC50": "> 10000"},
      {"smiles": "CC(C)C(=O)Nc1nc2cc(-c3nc(N4CCOCC4)nc(N4CCOCC4)n3)ccc2o1", "IC50": 397},
      {"smiles": "CN(C)c1nc2ccc(-c3nc(Nc4ccc(C(F)(F)F)cc4)nc(N4CCOCC4)n3)cc2s1", "IC50": "> 10000"},
      {"smiles": "O=C(O)c1ccc(CNc2nc3ccc(-c4nc(N5CCOCC5)nc(N5CCOCC5)n4)cc3o2)cc1", "IC50": 6},
      {"smiles": "CC(=O)N1CCN(c2nc(-c3ccc4nc(N)sc4c3)nc(N3CCOCC3)n2)CC1", "IC50": 497},
      {"smiles": "Nc1nc2cc(-c3nc(N4CCNCC4)nc(N4CCOCC4)n3)ccc2o1", "IC50": 569},
      {"smiles": "CN(C)c1nc2ccc(-c3nc(N4CCOCC4)nc(N4CCN(S(C)(=O)=O)CC4)n3)cc2s1", "IC50": "> 10000"},
      {"smiles": "CCN1CCN(c2nc(-c3ccc4oc(N)nc4c3)nc(N3CCOCC3)n2)CC1", "IC50": 598},
      {"smiles": "CC(=O)N1CCN(c2nc(-c3ccc4nc(N)oc4c3)nc(N3CCN(C(C)=O)CC3)n2)CC1", "IC50": "> 10000"},
      {"smiles": "Nc1nc2cc(-c3nc(NC4CCC(C(F)(F)F)CC4)nc(N4CCOCC4)n3)ccc2o1", "note": "(stereo not drawn)", "IC50": 703},
      {"smiles": "CS(=O)(=O)N1CCN(c2nc(-c3ccc4nc(N)oc4c3)nc(N3CCN(S(C)(=O)=O)CC3)n2)CC1", "IC50": "> 10000"},
      {"smiles": "CN(C)c1nc2cc(-c3nc(N4CCOCC4)nc(N4CCOCC4)n3)ccc2o1", "IC50": 2220},
      {"smiles": "CN(C)c1nc2ccc(-c3nc(N4CCNCC4)nc(N4CCOCC4)n3)cc2s1", "IC50": "> 10000"},
      {"smiles": "Nc1nc2cc(-c3nc(Nc4cccc(C(F)(F)F)c4)nc(N4CCOCC4)n3)ccc2o1", "IC50": 1410},
      {"smiles": "c1ccc(CNc2nc3cc(-c4nc(N5CCOCC5)nc(N5CCOCC5)n4)ccc3o2)cc1", "IC50": 63},
      {"smiles": "CN(C)c1nc2ccc(-c3nc(N4CCOCC4)nc(N4CCOCC4)n3)cc2s1", "IC50": "> 10000"},
      {"smiles": "Nc1nc2ccc(-c3nc(N4CCOCC4)nc(N4CCOCC4)n3)cc2s1", "IC50": 357},
      {"smiles": "N#Cc1ccc(CNc2nc3cc(-c4nc(N5CCOCC5)nc(N5CCOCC5)n4)ccc3o2)cc1", "IC50": 86},
      {"smiles": "COC(=O)c1ccc(CNc2nc3cc(-c4nc(N5CCOCC5)nc(N5CCOCC5)n4)ccc3o2)cc1", "IC50": 99},
      {"smiles": "FC(F)(F)c1ccc(CNc2nc3cc(-c4nc(N5CCOCC5)nc(N5CCOCC5)n4)ccc3o2)cc1", "IC50": 300},
      {"smiles": "CC(C)Nc1nc2cc(-c3nc(N4CCOCC4)nc(N4CCOCC4)n3)ccc2o1", "IC50": 2770},
      {"smiles": "CC(C)c1ccc(CNc2nc3cc(-c4nc(N5CCOCC5)nc(N5CCOCC5)n4)ccc3o2)cc1", "IC50": 311},
      {"smiles": "Nc1nc2cc(-c3nc(NC4CCOCC4)nc(N4CCOCC4)n3)ccc2o1", "IC50": 4240},
      {"smiles": "CS(=O)(=O)N1CCN(c2nc(-c3ccc4oc(N)nc4c3)nc(N3CCOCC3)n2)CC1", "IC50": 32},
      {"smiles": "Nc1nc2ccc(-c3nc(N4CCOCC4)nc(N4CCC(C(F)(F)F)CC4)n3)cc2s1", "IC50": 5360},
      {"smiles": "COc1ccc(CNc2nc3cc(-c4nc(N5CCOCC5)nc(N5CCOCC5)n4)ccc3o2)cc1", "IC50": 81},
      {"smiles": "CC(=O)N1CCN(c2nc(-c3ccc4nc(NCc5ccc(C(=O)O)cc5)oc4c3)nc(N3CCN(C(C)=O)CC3)n2)CC1", "IC50": "> 10000"},
      {"smiles": "COC(=O)c1ccc(CNc2nc3ccc(-c4nc(N5CCN(C(C)=O)CC5)nc(N5CCN(C(C)=O)CC5)n4)cc3o2)cc1", "IC50": "> 10000"},
      {"smiles": "CC(C)(C)OC(=O)N1CCN(c2nc(-c3ccc4oc(N)nc4c3)nc(N3CCOCC3)n2)CC1", "IC50": 259},
      {"smiles": "O=C(Nc1nc2cc(-c3nc(N4CCOCC4)nc(N4CCOCC4)n3)ccc2o1)C1CCCCC1", "IC50": 7450},
      {"smiles": "O=[N+]([O-])c1ccc(CNc2nc3cc(-c4nc(N5CCOCC5)nc(N5CCOCC5)n4)ccc3o2)cc1", "IC50": 72},
      {"smiles": "c1cc2oc(NC3CCCC3)nc2cc1-c1nc(N2CCOCC2)nc(N2CCOCC2)n1", "IC50": 2820},
      {"smiles": "NC(=O)c1ccc(CNc2nc3cc(-c4nc(N5CCOCC5)nc(N5CCOCC5)n4)ccc3o2)cc1", "IC50": 47},
      {"smiles": "CC(=O)Nc1nc2ccc(-c3nc(N4CCOCC4)nc(N4CCOCC4)n3)cc2s1", "IC50": 8750},
      {"smiles": "CC(=O)Nc1nc2cc(-c3nc(N4CCOCC4)nc(N4CCOCC4)n3)ccc2o1", "IC50": 66},
      {"smiles": "CC(C)N1CCN(c2nc(-c3ccc4oc(N)nc4c3)nc(N3CCOCC3)n2)CC1", "IC50": 1050},
      {"smiles": "CC(=O)N1CCN(c2nc(-c3ccc4oc(N)nc4c3)nc(N3CCOCC3)n2)CC1", "IC50": 23},
      {"smiles": "CC(C)(C)OC(=O)N1CCN(c2nc(-c3ccc4nc(N)sc4c3)nc(N3CCOCC3)n2)CC1", "IC50": 432}
    ]}
  ]
}
